According to ChEMBL document CHEMBL5303573, “Mapping human microbiome drug metabolism by gut bacteria and their genes” (Nature, 2019):

What was measured:
[1] = The drug is tested on Bifidobacterium ruminantium strain: fecal isolate for biotransformation. The drug concentrations were measured before and after a 12-h incubation by liquid-chromatography-coupled mass spectrometry (LC–MS); details: 2 µM
[2] = The drug is tested on Bacteroides uniformis strain: ATCC8492 for biotransformation. The drug concentrations were measured before and after a 12-h incubation by liquid-chromatography-coupled mass spectrometry (LC–MS); details: 2 µM
[3] = The drug is tested on Anaerotruncus colihominis strain: DSM17241 for biotransformation. The drug concentrations were measured before and after a 12-h incubation by liquid-chromatography-coupled mass spectrometry (LC–MS); details: 2 µM
[4] = The drug is tested on Bacteroides dorei strain: DSM17855 for biotransformation. The drug concentrations were measured before and after a 12-h incubation by liquid-chromatography-coupled mass spectrometry (LC–MS); details: phocaeicola dorei, 2 µM
[5] = The drug is tested on Ruminococcus gnavus strain: ATCC29149 for biotransformation. The drug concentrations were measured before and after a 12-h incubation by liquid-chromatography-coupled mass spectrometry (LC–MS); details: mediterraneibacter gnavus, 2 µM
[6] = The drug is tested on Ruminococcus torques strain: ATCC27756 for biotransformation. The drug concentrations were measured before and after a 12-h incubation by liquid-chromatography-coupled mass spectrometry (LC–MS); assay type: ADME; design: dose 2 uM, timepoint 0 vs 12 hours; details: 2 µM
[7] = The drug is tested on Enterococcus faecalis strain: V583 for biotransformation. The drug concentrations were measured before and after a 12-h incubation by liquid-chromatography-coupled mass spectrometry (LC–MS); details: 2 µM
[8] = The drug is tested on Clostridium scindens strain: ATCC35704 for biotransformation. The drug concentrations were measured before and after a 12-h incubation by liquid-chromatography-coupled mass spectrometry (LC–MS); details: 2 µM
[9] = bacteroides eggerthii, 12 h, 2 µM
Description: The drug is tested on Bacteroides eggerthii strain: DSM20697 for biotransformation. The drug concentrations were measured before and after a 12-h incubation by liquid-chromatography-coupled mass spectrometry (LC–MS)

[10] = The drug is tested on Bacteroides pectinophilus strain: ATCC43243 for biotransformation. The drug concentrations were measured before and after a 12-h incubation by liquid-chromatography-coupled mass spectrometry (LC–MS); details: 2 µM
[11] = The drug is tested on Dorea formicigenerans strain: ATCC27755 for biotransformation. The drug concentrations were measured before and after a 12-h incubation by liquid-chromatography-coupled mass spectrometry (LC–MS); details: 2 µM
[12] = The drug is tested on Subdoligranulum variabile strain: DSM15176 for biotransformation. The drug concentrations were measured before and after a 12-h incubation by liquid-chromatography-coupled mass spectrometry (LC–MS); details: 2 µM
[13] = The drug is tested on Enterobacter cancerogenus strain: ATCC35316 for biotransformation. The drug concentrations were measured before and after a 12-h incubation by liquid-chromatography-coupled mass spectrometry (LC–MS); details: 2 µM
[14] = The drug is tested on Escherichia coli strain: BW25113 for biotransformation. The drug concentrations were measured before and after a 12-h incubation by liquid-chromatography-coupled mass spectrometry (LC–MS); details: 2 µM
[15] = The drug is tested on Providencia rettgeri strain: DSM1131 for biotransformation. The drug concentrations were measured before and after a 12-h incubation by liquid-chromatography-coupled mass spectrometry (LC–MS); assay type: ADME; design: dose 2 uM, timepoint 0 vs 12 hours; details: 2 µM
[16] = The drug is tested on Bacteroides ovatus strain: ATCC8483 for biotransformation. The drug concentrations were measured before and after a 12-h incubation by liquid-chromatography-coupled mass spectrometry (LC–MS); details: 2 µM
[17] = The drug is tested on Clostridium sp. strain: fecal isolate for biotransformation. The drug concentrations were measured before and after a 12-h incubation by liquid-chromatography-coupled mass spectrometry (LC–MS); details: 2 µM
[18] = bifidobacterium adolescentis, 12 h, 2 µM
Description: The drug is tested on Bifidobacterium adolescentis strain: ATCC 15703 for biotransformation. The drug concentrations were measured before and after a 12-h incubation by liquid-chromatography-coupled mass spectrometry (LC–MS)

Row | Compound | Bacterial Biotransformation [1] | Bacterial Biotransformation [2] | Bacterial Biotransformation [3] | Bacterial Biotransformation [4] | Bacterial Biotransformation [5] | Bacterial Biotransformation [6] | Bacterial Biotransformation [7] | Bacterial Biotransformation [8] | Bacterial Biotransformation [9] | Bacterial Biotransformation [10] | Bacterial Biotransformation [11] | Bacterial Biotransformation [12] | Bacterial Biotransformation [13] | Bacterial Biotransformation [14] | Bacterial Biotransformation [15] | Bacterial Biotransformation [16] | Bacterial Biotransformation [17] | Bacterial Biotransformation [18]
1 | O=C(O)COCCN1CCN(C(c2ccccc2)c2ccc(Cl)cc2)CC1 (configuration not stated) [CETIRIZINE] | Compound NOT metabolized | Compound metabolized | Compound NOT metabolized | Compound metabolized | Compound NOT metabolized | Compound NOT metabolized | Compound NOT metabolized | Compound NOT metabolized | Compound metabolized | Compound metabolized | Compound NOT metabolized | Compound metabolized | Compound NOT metabolized |  |  |  |  | 
2 | Clc1cccc(Cl)c1N=C1NCCN1 [CLONIDINE] | Compound NOT metabolized | Compound metabolized | Compound NOT metabolized | Compound metabolized | Compound NOT metabolized | Compound NOT metabolized | Compound NOT metabolized | Compound NOT metabolized |  | Compound NOT metabolized | Compound NOT metabolized |  | Compound NOT metabolized | Compound NOT metabolized | Compound NOT metabolized | Compound metabolized | Compound NOT metabolized | Compound NOT metabolized
3 | CC(C)(C#N)c1cc(Cn2cncn2)cc(C(C)(C)C#N)c1 [ANASTROZOLE] | Compound metabolized | Compound metabolized | Compound NOT metabolized |  | Compound NOT metabolized | Compound NOT metabolized | Compound NOT metabolized | Compound NOT metabolized | Compound metabolized | Compound NOT metabolized | Compound NOT metabolized |  | Compound NOT metabolized |  |  | Compound metabolized | Compound metabolized | Compound NOT metabolized
4 | Clc1ccc(Cn2c(CN3CCCC3)nc3ccccc32)cc1 [CLEMIZOLE] | Compound NOT metabolized | Compound NOT metabolized |  |  | Compound NOT metabolized | Compound NOT metabolized | Compound NOT metabolized | Compound NOT metabolized | Compound NOT metabolized | Compound NOT metabolized | Compound NOT metabolized | Compound NOT metabolized | Compound NOT metabolized |  | Compound NOT metabolized | Compound NOT metabolized |  | Compound NOT metabolized
5 | CCN(CC)CCNC(=O)c1ccc(NC(C)=O)cc1 [ACECAINIDE] |  | Compound metabolized | Compound NOT metabolized |  | Compound NOT metabolized | Compound NOT metabolized | Compound NOT metabolized | Compound NOT metabolized |  | Compound NOT metabolized | Compound NOT metabolized | Compound NOT metabolized |  | Compound NOT metabolized | Compound NOT metabolized |  | Compound NOT metabolized | Compound NOT metabolized
6 | CC(C)NCC(O)COc1ccc(COCCOC(C)C)cc1.CC(C)NCC(O)COc1ccc(COCCOC(C)C)cc1.O=C(O)/C=C/C(=O)O (configuration not stated) [BISOPROLOL FUMARATE] | Compound NOT metabolized |  | Compound NOT metabolized | Compound NOT metabolized | Compound NOT metabolized | Compound NOT metabolized | Compound NOT metabolized | Compound NOT metabolized | Compound NOT metabolized |  | Compound NOT metabolized |  |  |  | Compound NOT metabolized | Compound NOT metabolized | Compound NOT metabolized | Compound NOT metabolized
7 | C[N+]12CCC(CC1)C(OC(=O)C(O)(c1ccccc1)c1ccccc1)C2.[Br-] (configuration not stated) [CLIDINIUM BROMIDE] |  | Compound NOT metabolized | Compound NOT metabolized | Compound NOT metabolized | Compound NOT metabolized |  | Compound NOT metabolized | Compound NOT metabolized | Compound NOT metabolized |  | Compound NOT metabolized | Compound NOT metabolized |  | Compound NOT metabolized | Compound NOT metabolized | Compound NOT metabolized | Compound NOT metabolized | Compound NOT metabolized
8 | CCCC(C)(COC(N)=O)COC(=O)NC(C)C (configuration not stated) [CARISOPRODOL] | Compound NOT metabolized | Compound metabolized |  | Compound metabolized | Compound NOT metabolized | Compound NOT metabolized | Compound NOT metabolized | Compound NOT metabolized |  | Compound metabolized | Compound NOT metabolized |  | Compound NOT metabolized | Compound NOT metabolized |  |  | Compound metabolized | 
9 | CN(C)CCC=C1c2ccccc2C=Cc2ccccc21 [CYCLOBENZAPRINE] | Compound NOT metabolized |  | Compound NOT metabolized |  | Compound NOT metabolized | Compound NOT metabolized | Compound NOT metabolized | Compound NOT metabolized | Compound NOT metabolized |  | Compound NOT metabolized |  | Compound NOT metabolized | Compound NOT metabolized |  | Compound NOT metabolized | Compound metabolized | Compound NOT metabolized
